From article PMC7816042, “Insights into the Structure-Activity Relationship of Glycosides as Positive Allosteric Modulators Acting on P2X7 Receptors” (Molecular Pharmacology, 2021) come the findings set out here.

Where a name gives a salt, the structure may show the parent alone.

The target in this series is T1, human P2X7 (Homo sapiens, UniProt Q99572).
T1 construct: expressed in transfected cells
T1 sequence (Q99572 1-595): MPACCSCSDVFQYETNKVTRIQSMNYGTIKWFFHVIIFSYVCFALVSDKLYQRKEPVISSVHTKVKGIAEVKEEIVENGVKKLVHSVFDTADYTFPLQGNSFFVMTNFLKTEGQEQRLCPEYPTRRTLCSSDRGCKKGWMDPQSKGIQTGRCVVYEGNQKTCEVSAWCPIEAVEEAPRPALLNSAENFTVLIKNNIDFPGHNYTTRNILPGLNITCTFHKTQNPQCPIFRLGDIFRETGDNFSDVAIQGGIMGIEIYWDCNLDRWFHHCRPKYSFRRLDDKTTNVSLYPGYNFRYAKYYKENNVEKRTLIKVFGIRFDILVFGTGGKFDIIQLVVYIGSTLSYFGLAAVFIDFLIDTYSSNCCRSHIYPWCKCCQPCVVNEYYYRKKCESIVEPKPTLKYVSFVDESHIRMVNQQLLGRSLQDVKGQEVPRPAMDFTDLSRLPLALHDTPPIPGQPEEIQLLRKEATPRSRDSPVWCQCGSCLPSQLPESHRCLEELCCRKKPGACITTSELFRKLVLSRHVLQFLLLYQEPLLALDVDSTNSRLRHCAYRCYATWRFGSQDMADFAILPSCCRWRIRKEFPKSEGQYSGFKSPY
Put plainly: YO-PRO-1 dye uptake assay in HEK-hP2X7 cells. In kind it is cell-based. To be noted: for EC50 ratio: average EC50 for ATP + vehicle of each set of experiments used; for Maximum response (fold increase): maximum response defined at 1 mM ATP; for ATP-induced YO-PRO-1 response in fixed-concentration screen: 200 µM ATP, compared with ATP + DMSO. On the procedure:
ATP-induced dye uptake experiments were performed as described previously ([Bidula et al., 2019b]). Briefly, HEK-hP2X7 cells were plated at 2 × 10^4 cells per well (100 μl per well) in complete medium and left overnight to attach to poly-D-lysine–coated 96-well plates. YO-PRO-1 iodide was prepared in a low divalent buffered solution ([…], 2 mM KCl, 13 mM D-glucose, 10 mM HEPES, 0.2 mM CaCl2 pH 7.3) to a final concentration of 2 μM. Medium was removed from the plate using a manual multichannel pipette and YO-PRO-1 containing buffer applied to wells (180 μl per well). […] A Flexstation 3 plate reader (Molecular Devices, Sunnyvale, CA) was used to record YO-PRO-1 fluorescence in HEK-hP2X7 for 300 seconds after the addition of ATP (at 10× final concentration) with/without ginsenoside compounds or vehicle (DMSO). Plates were allowed to warm up to 37°C for 10 minutes before initiating the recording. Baseline recordings were made for 40 seconds before compound addition using the Flexstation 3 fluidics system. YO-PRO-1 fluorescence was measured at 520 nm after excitation at 490 nm (auto cutoff at 495 nm), and the sample interval was 3.5 seconds. Flexstation settings were photomultiplier tube (PMT) medium, six reads per well, pipette height 170, and a rate of injection of 3. Data were acquired using Softmax Pro version 5.4 (Molecular Devices). To analyze the data, area under the dye uptake curve was calculated in Softmax Pro version 5 using zero baseline data with a lag time of 50 seconds (50–300 seconds).
Results are expressed as means ± S.D. from the indicated number of experiments. For YO-PRO-1 dye uptake and intracellular calcium experiments, each independent experiment used triplicate wells, and the means of the replicates were collated and plotted. Technical replicates were used to ensure reliability of fluorescence values. […] Dose-response curves were plotted by a nonlinear regression fit with variable slope using GraphPad Prism software version 7. Half-maximal responses are expressed as EC50 values with 95% confidence intervals. These values were calculated from the collated data for each compound from three independent experiments. Statistical differences were determined by analysis of the data by one-way ANOVA followed by Dunnett’s multiple comparison test or Sidak’s multiple comparison test using GraphPad Prism version 7. P < 0.05 was the accepted minimum level of significance.

In the case of `CC(C)=CCC[C@@](C)(O)[C@H]1CC[C@]2(C)[C@@H]1[C@H](O)C[C@@H]1[C@@]3(C)CC[C@H](O[C@@H]4O[C@H](CO)[C@@H](O)[C@H](O)[C@H]4O)C(C)(C)[C@@H]3CC[C@]12C` [Ginsenoside-20(R)-Rh2, 20(R)-ginsenoside-Rh2], for the setting “10 µM glycoside”, the EC50 ratio was determined as 0.8 and the “Maximum response (fold increase)” value is 1.53 fold.

For the molecule `C[C@H]1CC[C@@H]2[C@@H](C)[C@H]3[C@H](C[C@H]4[C@@H]5CC=C6C[C@@H](O[C@@H]7O[C@H](CO)[C@H](O)[C@H](O[C@@H]8O[C@H](CO)[C@@H](O)[C@H](O)[C@H]8O)[C@H]7O[C@@H]7O[C@@H](C)[C@H](O)[C@@H](O)[C@H]7O)CC[C@]6(C)[C@H]5CC[C@]34C)N2C1` [Solanine, solanine hydrochloride], the “Effect of AZ10606120 pretreatment on response to ATP + glycoside (P2X7 dependence)” value (10 µM AZ10606120 pretreatment) was “unaffected by AZ10606120 pretreatment”. Further, the “ATP-induced YO-PRO-1 response in fixed-concentration screen” value (shortened to “ATP-induced YO-PRO-1 response”) (10 µM glycoside) is reported as “large increase”. Besides, the “Toxic effect on cells” value (YO-PRO-1 uptake without ATP or without P2X7) was “toxic effect on the cells”.

Consider `C[C@@H]1O[C@@H](O[C@H]2C[C@@H](O)[C@]3(CO)[C@H]4[C@H](O)C[C@]5(C)[C@@H](C6=CC(=O)OC6)CC[C@]5(O)[C@@H]4CC[C@]3(O)C2)[C@H](O)[C@H](O)[C@H]1O` [Ouabain, ouabain, reference compound], for which the “PAM effect on ATP dose-response curve” value (10 µM glycoside, HEK-hP2X7, result in words) was “no effect on the ATP dose-response curves”. Also, where the note is “10 µM glycoside”, the EC50 ratio was determined as 1.1 and the “Maximum response (fold increase)” value came to 1.08 fold.

For the molecule `C[C@H](CC[C@@H](O[C@@H]1O[C@H](CO[C@@H]2O[C@H](CO)[C@@H](O)[C@H](O)[C@H]2O)[C@@H](O)[C@H](O)[C@H]1O[C@@H]1O[C@H](CO)[C@@H](O)[C@H](O)[C@H]1O)C(C)(C)O)[C@H]1CC[C@@]2(C)[C@@H]3CC=C4[C@@H](CC[C@H](O[C@@H]5O[C@H](CO[C@@H]6O[C@H](CO)[C@@H](O)[C@H](O)[C@H]6O)[C@@H](O)[C@H](O)[C@H]5O)C4(C)C)[C@]3(C)[C@H](O)C[C@]12C` [Mogroside V, mogroside V], the “ATP-induced YO-PRO-1 response” value (10 µM glycoside) was “no modulation of P2X7”.

As to `C=C1C[C@@]23CC[C@H]4[C@@](C)(CCC[C@@]4(C)C(=O)O[C@@H]4O[C@H](CO)[C@@H](O)[C@H](O)[C@H]4O)[C@@H]2CC[C@]1(O[C@@H]1O[C@H](CO)[C@@H](O)[C@H](O)[C@H]1O[C@@H]1O[C@H](CO)[C@@H](O)[C@H](O)[C@H]1O)C3` [Stevioside, stevioside], under “10 µM glycoside”, the “ATP-induced YO-PRO-1 response” value was “no modulation of P2X7” and the EC50 ratio was found to be 1.0.

In the case of `CC(C)=CCC[C@](C)(O[C@@H]1O[C@H](CO[C@@H]2OC[C@@H](O)[C@H](O)[C@H]2O)[C@@H](O)[C@H](O)[C@H]1O)[C@H]1CC[C@]2(C)[C@@H]1[C@H](O)C[C@@H]1[C@@]3(C)CC[C@H](O[C@@H]4O[C@H](CO)[C@@H](O)[C@H](O)[C@H]4O)C(C)(C)[C@@H]3CC[C@]12C` [Stevenleaf (gypenoside IX), stevenleaf], under “10 µM glycoside”, the EC50 ratio was 0.7 and the “Maximum response (fold increase)” value came out at 1.64 fold.
